Target: P. falciparum apicoplast DNA polymerase (Pf-apPOL) (Plasmodium falciparum, UniProt Q8ILY1)
Assay: Fluorescence-based high-throughput DNA polymerase assay (molecular beacon), primary screen and dose-response;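 for % inhibition ApPOL 90': test concentration in µM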;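 for % inhibition apPOL 180': test concentration in µM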
Assay type: biochemical
In short: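 Single-point screening used 10 µM compound with 20 nM polymerase, 20 nM hairpin substrate and 6 µM dNTPs for 90 min at 25 °C. Confirmatory titrations (2.5–80 µM) followed fluorescence at three times, and IC50 was derived from a fit including a cooperativity term n.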

[1] = 186 hits, value of the hit list (primary screen); unit not given; 90 min, 10 µM
[2] = primary screen value, 'DNA Pol' only; 90 min, 10 µM

Chain of P. falciparum apicoplast DNA polymerase (Pf-apPOL) (Q8ILY1 entry or part of it): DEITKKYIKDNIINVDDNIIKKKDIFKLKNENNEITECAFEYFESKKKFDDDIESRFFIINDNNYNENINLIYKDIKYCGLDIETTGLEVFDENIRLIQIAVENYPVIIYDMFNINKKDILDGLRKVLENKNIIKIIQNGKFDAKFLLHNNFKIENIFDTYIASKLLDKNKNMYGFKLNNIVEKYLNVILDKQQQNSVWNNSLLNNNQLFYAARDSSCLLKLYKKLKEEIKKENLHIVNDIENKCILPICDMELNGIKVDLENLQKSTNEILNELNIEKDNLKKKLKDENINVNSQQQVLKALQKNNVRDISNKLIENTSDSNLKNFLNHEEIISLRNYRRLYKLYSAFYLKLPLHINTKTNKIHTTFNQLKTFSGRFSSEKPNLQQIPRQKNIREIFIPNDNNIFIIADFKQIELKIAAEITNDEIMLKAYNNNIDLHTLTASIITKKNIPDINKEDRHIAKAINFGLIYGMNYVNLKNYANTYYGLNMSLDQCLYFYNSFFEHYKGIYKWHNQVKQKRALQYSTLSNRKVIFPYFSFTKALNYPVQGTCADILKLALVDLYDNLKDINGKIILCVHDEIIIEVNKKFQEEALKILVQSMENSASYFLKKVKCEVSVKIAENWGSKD

O=C(Nc1cccc(C(=O)Nc2ccc(S(=O)(=O)[O-])c3cc(S(=O)(=O)[O-])cc(S(=O)(=O)[O-])c23)c1)Nc1cccc(C(=O)Nc2ccc(S(=O)(=O)[O-])c3cc(S(=O)(=O)[O-])cc(S(=O)(=O)[O-])c23)c1.[Na+].[Na+].[Na+].[Na+].[Na+].[Na+] [Molecule 39, O=C(Nc1cccc(c1)C(=O)Nc1ccc(c2c1c(cc(c2)S(=O)(=O)[O-])S(=O)(=O)[O-])S(=O)(=O)[O-])Nc1cccc(c1)C(=O)Nc1ccc(c2c1c(cc(c2)S(=O)(=O)[O-])S(=O)(=O)[O-])S(=O)(=O)[O-].[Na+].[Na+].[Na+].[Na+].[Na+].[Na+]]
DNA Pol ('DNA Pol' of the 186 hits list (primary screen result); unit not given; 90 min, 10 µM): 94
% inhibition Apo pol 10' (DRC-1; 10'; concentration 2.5): 28.0363%
% inhibition Apo pol 10' (DRC-1; 10'; concentration 5): 43.2303%
% inhibition Apo pol 10' (DRC-1; 10'; concentration 10): 60.7681%
% inhibition Apo pol 10' (DRC-1; 10'; concentration 20): 81.9365%
% inhibition Apo pol 10' (DRC-1; 10'; concentration 40): 96.2832%
% inhibition Apo pol 10' (DRC-1; 10'; concentration 80): 99.222%
% inhibition Apol 90' (DRC-1; 90'; concentration 2.5): -1.332%
% inhibition Apol 90' (DRC-1; 90'; concentration 5): 6.063%
% inhibition Apol 90' (DRC-1; 90'; concentration 10): 22.6686%
% inhibition Apol 90' (DRC-1; 90'; concentration 20): 56.1821%
% inhibition Apol 90' (DRC-1; 90'; concentration 40): 89.9026%
% inhibition Apol 90' (DRC-1; 90'; concentration 80): 98.7402%
% inhibition apPOL 180' (DRC-1; 180'; concentration 2.5): -3.025%
% inhibition apPOL 180' (DRC-1; 180'; concentration 5): 1.181%
% inhibition apPOL 180' (DRC-1; 180'; concentration 10): 16.2132%
% inhibition apPOL 180' (DRC-1; 180'; concentration 20): 51.6229%
% inhibition apPOL 180' (DRC-1; 180'; concentration 40): 87.2271%
% inhibition apPOL 180' (DRC-1; 180'; concentration 80): 98.5627%
% inhibition Apol 40' (DRC-2, 40', concentration 20 (unit not given)): 56%
% inhibition ApPOL 90' (DRC-2, 90', concentration 20 (unit not given)): 56%
% inhibition Apo pol 5' (DRC-2; 5'; concentration 2.5): 12%
% inhibition Apo pol 5' (DRC-2; 5'; concentration 5): 23%
% inhibition Apo pol 5' (DRC-2; 5'; concentration 10): 41%
% inhibition Apo pol 5' (DRC-2; 5'; concentration 20): 52%
% inhibition Apo pol 5' (DRC-2; 5'; concentration 40): 59%
% inhibition Apo pol 5' (DRC-2; 5'; concentration 80): 63%
% inhibition Apol 40' (DRC-2; 40'; concentration 2.5): -11%
% inhibition Apol 40' (DRC-2; 40'; concentration 5): 4.26%
% inhibition Apol 40' (DRC-2; 40'; concentration 10): 29%
% inhibition Apol 40' (DRC-2; 40'; concentration 20): 56%
% inhibition Apol 40' (DRC-2; 40'; concentration 40): 75%
% inhibition Apol 40' (DRC-2; 40'; concentration 80): 79%
% inhibition ApPOL 90' (DRC-2; 90'; concentration 2.5): -13%
% inhibition ApPOL 90' (DRC-2; 90'; concentration 5): 1%
% inhibition ApPOL 90' (DRC-2; 90'; concentration 10): 28%
% inhibition ApPOL 90' (DRC-2; 90'; concentration 20): 56%
% inhibition ApPOL 90' (DRC-2; 90'; concentration 40): 78%
% inhibition ApPOL 90' (DRC-2; 90'; concentration 80): 83%
% inhibition apPOL 180' (DRC-2; 180'; concentration 2.5): -3.36%
% inhibition apPOL 180' (DRC-2; 180'; concentration 5): 7.57%
% inhibition apPOL 180' (DRC-2; 180'; concentration 10): 31%
% inhibition apPOL 180' (DRC-2; 180'; concentration 20): 58%
% inhibition apPOL 180' (DRC-2; 180'; concentration 40): 80%
% inhibition apPOL 180' (DRC-2; 180'; concentration 80): 86%
DNA Pol (primary screen value of the library well; unit not given; 90 min, 10 µM): 94

O=C(O)c1c(F)c(F)c(-c2c(F)c(F)c(C(=O)O)c(F)c2F)c(F)c1F [KU0008974]
DNA Pol [1]: 36
% inhibition Apo pol 10' (DRC-1; 10'; concentration 2.5): 9.435%
% inhibition Apo pol 10' (DRC-1; 10'; concentration 5): 13.4595%
% inhibition Apo pol 10' (DRC-1; 10'; concentration 10): 21.422%
% inhibition Apo pol 10' (DRC-1; 10'; concentration 20): 42.0339%
% inhibition Apo pol 10' (DRC-1; 10'; concentration 40): 61.4201%
% inhibition Apo pol 10' (DRC-1; 10'; concentration 80): 59.9111%
% inhibition Apol 90' (DRC-1; 90'; concentration 2.5): 3.377%
% inhibition Apol 90' (DRC-1; 90'; concentration 5): 7.4359%
% inhibition Apol 90' (DRC-1; 90'; concentration 10): 14.2426%
% inhibition Apol 90' (DRC-1; 90'; concentration 20): 33.67%
% inhibition Apol 90' (DRC-1; 90'; concentration 40): 52.8962%
% inhibition Apol 90' (DRC-1; 90'; concentration 80): 50.0149%
% inhibition apPOL 180' (DRC-1; 180'; concentration 2.5): -2.039%
% inhibition apPOL 180' (DRC-1; 180'; concentration 5): 0.5684%
% inhibition apPOL 180' (DRC-1; 180'; concentration 10): 7.634%
% inhibition apPOL 180' (DRC-1; 180'; concentration 20): 22.5458%
% inhibition apPOL 180' (DRC-1; 180'; concentration 40): 40.2712%
% inhibition apPOL 180' (DRC-1; 180'; concentration 80): 38.6937%
% inhibition Apo pol 5' (DRC-2, 5', concentration 2.5): 4%
% inhibition Apo pol 5' (DRC-2, 5', concentration 5): 5%
% inhibition Apo pol 5' (DRC-2, 5', concentration 10): 17%
% inhibition Apo pol 5' (DRC-2, 5', concentration 20): 29%
% inhibition Apo pol 5' (DRC-2, 5', concentration 40): 17%
% inhibition Apo pol 5' (DRC-2, 5', concentration 80): 35%
% inhibition Apol 40' (DRC-2, 40', concentration 2.5): 5%
% inhibition Apol 40' (DRC-2, 40', concentration 5): 9%
% inhibition Apol 40' (DRC-2, 40', concentration 10): 23%
% inhibition Apol 40' (DRC-2, 40', concentration 20): 41%
% inhibition Apol 40' (DRC-2, 40', concentration 40): 20%
% inhibition Apol 40' (DRC-2, 40', concentration 80): 47%
% inhibition ApPOL 90' (DRC-2, 90', concentration 2.5): 2.67%
% inhibition ApPOL 90' (DRC-2, 90', concentration 5): 7.58%
% inhibition ApPOL 90' (DRC-2, 90', concentration 10): 21%
% inhibition ApPOL 90' (DRC-2, 90', concentration 20): 39%
% inhibition ApPOL 90' (DRC-2, 90', concentration 40): 19%
% inhibition ApPOL 90' (DRC-2, 90', concentration 80): 47%
% inhibition apPOL 180' (DRC-2, 180', concentration 2.5): -4%
% inhibition apPOL 180' (DRC-2, 180', concentration 5): -1%
% inhibition apPOL 180' (DRC-2, 180', concentration 10): 12%
% inhibition apPOL 180' (DRC-2, 180', concentration 20): 30%
% inhibition apPOL 180' (DRC-2, 180', concentration 40): 14%
% inhibition apPOL 180' (DRC-2, 180', concentration 80): 40%
% inhibition Apo pol 5' (DRC-2; 5'; concentration 5): 5%
% inhibition Apo pol 5' (DRC-2; 5'; concentration 10): 17%
% inhibition Apo pol 5' (DRC-2; 5'; concentration 40): 17%
% inhibition Apol 40' (DRC-2; 40'; concentration 2.5): 5%
% inhibition Apol 40' (DRC-2; 40'; concentration 80): 47%
% inhibition ApPOL 90' (DRC-2; 90'; concentration 80): 47%
DNA Pol [2]: 36

O=C(O)C(=O)Nc1nc(-c2ccc3c(c2)OCCO3)cs1 [Molecule 82, OC(=O)C(=O)Nc1scc(n1)c1ccc2c(c1)OCCO2]
DNA Pol [1]: 43
% inhibition Apo pol 10' (DRC-1; 10'; concentration 2.5): 23.4738%
% inhibition Apo pol 10' (DRC-1; 10'; concentration 5): 27.4589%
% inhibition Apo pol 10' (DRC-1; 10'; concentration 10): 36.2592%
% inhibition Apo pol 10' (DRC-1; 10'; concentration 20): 39.5068%
% inhibition Apo pol 10' (DRC-1; 10'; concentration 40): 47.7699%
% inhibition Apo pol 10' (DRC-1; 10'; concentration 80): 63.5129%
% inhibition Apol 90' (DRC-1; 90'; concentration 2.5): 8.772%
% inhibition Apol 90' (DRC-1; 90'; concentration 5): 11.5991%
% inhibition Apol 90' (DRC-1; 90'; concentration 10): 21.2379%
% inhibition Apol 90' (DRC-1; 90'; concentration 20): 24.9603%
% inhibition Apol 90' (DRC-1; 90'; concentration 40): 33.8146%
% inhibition Apol 90' (DRC-1; 90'; concentration 80): 46.367%
% inhibition apPOL 180' (DRC-1; 180'; concentration 2.5): 0.4032%
% inhibition apPOL 180' (DRC-1; 180'; concentration 5): 2.14%
% inhibition apPOL 180' (DRC-1; 180'; concentration 10): 10.4775%
% inhibition apPOL 180' (DRC-1; 180'; concentration 20): 13.4628%
% inhibition apPOL 180' (DRC-1; 180'; concentration 40): 21.1866%
% inhibition apPOL 180' (DRC-1; 180'; concentration 80): 32.4786%
% inhibition Apo pol 5' (DRC-2, 5', concentration 2.5): 23%
% inhibition Apo pol 5' (DRC-2, 5', concentration 5): 17%
% inhibition Apo pol 5' (DRC-2, 5', concentration 10): 25%
% inhibition Apo pol 5' (DRC-2, 5', concentration 20): 30%
% inhibition Apo pol 5' (DRC-2, 5', concentration 40): 34%
% inhibition Apo pol 5' (DRC-2, 5', concentration 80): 46%
% inhibition Apol 40' (DRC-2, 40', concentration 2.5): 13%
% inhibition Apol 40' (DRC-2, 40', concentration 5): 15%
% inhibition Apol 40' (DRC-2, 40', concentration 10): 24%
% inhibition Apol 40' (DRC-2, 40', concentration 20): 28%
% inhibition Apol 40' (DRC-2, 40', concentration 40): 37%
% inhibition Apol 40' (DRC-2, 40', concentration 80): 46%
% inhibition ApPOL 90' (DRC-2, 90', concentration 2.5): 8%
% inhibition ApPOL 90' (DRC-2, 90', concentration 5): 14%
% inhibition ApPOL 90' (DRC-2, 90', concentration 10): 23%
% inhibition ApPOL 90' (DRC-2, 90', concentration 20): 26%
% inhibition ApPOL 90' (DRC-2, 90', concentration 40): 34%
% inhibition ApPOL 90' (DRC-2, 90', concentration 80): 43%
% inhibition apPOL 180' (DRC-2, 180', concentration 2.5): 0.181%
% inhibition apPOL 180' (DRC-2, 180', concentration 5): 9%
% inhibition apPOL 180' (DRC-2, 180', concentration 10): 15%
% inhibition apPOL 180' (DRC-2, 180', concentration 20): 18%
% inhibition apPOL 180' (DRC-2, 180', concentration 40): 25%
% inhibition apPOL 180' (DRC-2, 180', concentration 80): 34%
% inhibition Apo pol 5' (DRC-2; 5'; concentration 2.5): 23%
% inhibition Apo pol 5' (DRC-2; 5'; concentration 10): 25%
% inhibition Apo pol 5' (DRC-2; 5'; concentration 40): 34%
% inhibition Apo pol 5' (DRC-2; 5'; concentration 80): 46%
% inhibition Apol 40' (DRC-2; 40'; concentration 5): 15%
% inhibition Apol 40' (DRC-2; 40'; concentration 80): 46%
% inhibition ApPOL 90' (DRC-2; 90'; concentration 10): 23%
% inhibition ApPOL 90' (DRC-2; 90'; concentration 40): 34%
% inhibition apPOL 180' (DRC-2; 180'; concentration 10): 15%
% inhibition apPOL 180' (DRC-2; 180'; concentration 40): 25%
% inhibition apPOL 180' (DRC-2; 180'; concentration 80): 34%
DNA Pol [2]: 43

Reference: PMC9090415, “Discovery of small molecule inhibitors of Plasmodium falciparum apicoplast DNA polymerase” (Journal of Enzyme Inhibition and Medicinal Chemistry, 2022)
